Patent US20210308108A1, “ACTIVATING PYRUVATE KINASE R” (FORMA Therapeutics, Inc., priority 2018, published 2021)

Columns and labels:
Type in all cases: biochemical
wt-PKR [1] = molecular target: T1, wt-PKR (Homo sapiens, UniProt P30613); assay: Enzyme assay, activation at different compound concentrations (rate of ATP formation); conditions: PEP concentrations at or below Km
wt-PKR [2] = molecular target: T1, wt-PKR; assay: Enzyme assay, kinetic parameters (Vmax, PEP Km)
Protocol: (§1) Tests were conducted in the presence and absence of fructose-1,6-bisphosphate (FBP), a known allosteric activator of PKR.

PKR-R510Q [3] = molecular target: T2, PKR-R510Q (Homo sapiens, UniProt P30613, R510Q); assay: Enzyme assay, kinetic parameters (Vmax, PEP Km)
T2 sequence (P30613 whole entry R510Q): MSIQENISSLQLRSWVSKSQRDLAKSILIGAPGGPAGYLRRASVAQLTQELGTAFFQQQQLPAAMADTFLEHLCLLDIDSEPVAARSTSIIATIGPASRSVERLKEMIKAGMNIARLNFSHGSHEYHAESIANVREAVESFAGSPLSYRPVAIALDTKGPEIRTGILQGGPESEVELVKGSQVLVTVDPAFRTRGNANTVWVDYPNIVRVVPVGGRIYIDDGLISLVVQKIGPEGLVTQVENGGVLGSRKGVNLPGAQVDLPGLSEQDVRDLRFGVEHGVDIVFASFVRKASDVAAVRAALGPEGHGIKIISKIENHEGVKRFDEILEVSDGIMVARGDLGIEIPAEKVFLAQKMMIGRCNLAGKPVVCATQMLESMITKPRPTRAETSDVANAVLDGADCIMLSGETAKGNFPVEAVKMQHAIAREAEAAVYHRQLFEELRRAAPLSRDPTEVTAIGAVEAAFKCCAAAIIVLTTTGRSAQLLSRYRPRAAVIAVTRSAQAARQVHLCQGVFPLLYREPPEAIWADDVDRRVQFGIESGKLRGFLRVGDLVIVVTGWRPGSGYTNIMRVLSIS
Protocol: as §1

PKR-R510Q [4] = molecular target: T2, PKR-R510Q; assay: Enzyme assay, activation at different compound concentrations (rate of ATP formation); conditions: PEP concentrations at or below Km
[5] = 2 μM Compound 1, in the presence or absence of FBP
[6] = 2 μM Compound 1, presence and absence of FBP

T1 sequence (P30613 whole entry): as the sequence (P30613 whole entry R510Q) above, with Q510R counted along it

## O=C([C@H](CO)c1ccccc1)N1CC2=C(C1)CN(S(=O)(=O)c1cnc3c(c1)OCCO3)C2 (single isomer, unassigned) [Compound 1]
wt-PKR [1]
  Maximum-fold Activation: <2.0 fold
wt-PKR [2]; [5]
  reduction of PEP Km: ~2 fold
wt-PKR [2]; [6]
  effect on Vmax: no effect to a modest increase
PKR-R510Q [3]; [5]
  reduction of PEP Km: ~2 fold
PKR-R510Q [3]; [6]
  effect on Vmax: no effect to a modest increase
PKR-R510Q [4]
  Maximum-fold Activation: <3.0 fold
